Death rate data for 30 molecules are collected here from patent US9353110B2, “Fused heterocyclic compound” (Sumitomo Chemical Company, Limited, priority 2011, dated 2016).

What all share (format): in vivo
Assay [1] concerns Blattalla germanica. Description: Test Example 9: filter paper with sucrose bait against Blattalla germanica. To be noted: 500 ppm test solution, 0.7 ml on filter paper, 2 male imagoes, after 6 days. The protocol: Each test solution was prepared by diluting a formulation containing any of the present compounds 4-5, 19-20, 28-29, 40, 44, 48, 60, 71-74, 89, 523 and 528 as obtained in Formulation Example 5, with water so as to give 500 ppm of the concentration of the active ingredient.
A filter paper having a diameter of 5.5 cm was spread on the bottom of a polyethylene cup having a diameter of 5.5 cm and each test solution (0.7 ml) was added dropwise onto the filter paper. As a bait sucrose (30 mg) was uniformly placed on the filter paper. Into the polyethylene cup, 2 male imagoes of Blattalla germanica were released and the cup was sealed with a lid. After 6 days, the number of surviving Blattalla germanica was examined and the death rate of the pest was calculated.

Assay [2] relates to Haemaphysalis longicornis. Put plainly: Test Example 11: coated screw tube against nymphal ticks Haemaphysalis longicornis. To be noted: 2 mg compound coated on inner wall of screw tube, 5 non-blood-sucking nymphal ticks, after 2 days. The protocol:
Each 2 mg of the present compounds 1, 5, 8, 15-16, 19, 23, 25-27, 30, 37, 40, 49, 61, 63, 99 and 516 was put into a screw tube (Maruemu No. 5; 27×55 mm). Acetone (0.2 ml) was added thereto and sealed with a cap. After dissolving the compound in acetone, the screw tube was rotated and inverted to uniformity coat the solution onto the whole inner wall of the tube. After removing the cap, the solution was air-dried for about 2 hours. Then, non-blood-sucking nymphal ticks, Haemaphysalis longicornis (5 ticks/group) were released into the tube, and the tube was sealed with the cap. After 2 days, the number of dead tick was counted, and a death rate was calculated according to the following equation: Death rate (%)=(Number of dead tick/Number of tested tick)×100

Assay [3] relates to Musca domestica. Description: Test Example 8: filter paper with sucrose bait against Musca domestica. The conditions noted are these: 500 ppm test solution, 0.7 ml on filter paper, 10 female imagoes, after 24 hours. How it is done: Each test solution was prepared by diluting a formulation containing any of the present compounds 1, 3-5, 8, 15-16, 19-20, 23, 27, 29, 37, 40, 44, 48, 60-61, 64, 72, 74, 518, 523 and 528 as obtained in Formulation Example 5, with water so as to give 500 ppm of the concentration of the active ingredient.
A filter paper having a diameter of 5.5 cm was spread on the bottom of a polyethylene cup having a diameter of 5.5 cm and each test solution (0.7 ml) was added dropwise onto the filter paper. As a bait sucrose (30 mg) was uniformly placed on the filter paper. Into the polyethylene cup, 10 female imagoes of Musca domestica were released and the cup was sealed with a lid. After 24 hours, the number of surviving Musca domestica was examined and the death rate of the pest was calculated.

In the case of `CCS(=O)(=O)c1cc(C(F)(F)F)cnc1-c1nc2cc(C(F)(F)C(F)(F)F)ccc2n1C` [compound 40], the death rate in assay [1], in assay [2] and in assay [3] was 100% each time.
Consider `CCS(=O)(=O)c1cc(C(F)(F)F)cnc1-c1nc2cc(C(F)(F)F)cnc2n1C` [compound 5], for which the death rate in assay [1], in assay [2] and in assay [3] was 100% in each case.
For the molecule `CCS(=O)(=O)c1cccnc1-c1nc2cc(S(=O)(=O)C(F)(F)F)cnc2n1C` [compound 16], the death rate in assay [2] and in assay [3] was 100% each time.
For `CCS(=O)(=O)c1cc(C(F)(F)F)cnc1-c1nc2cc(C(F)(F)F)c[n+]([O-])c2n1C` [compound 48], the death rate in assay [1] and in assay [3] was 100% throughout.
For `CCSc1cccnc1-c1nc2cc(C(F)(F)F)cnc2n1C` [compound 1], the death rate in assay [2] and in assay [3] was 100% in each case.
In the case of `CCS(=O)(=O)c1cccnc1-c1nc2cc(C(F)(F)C(F)(F)F)ccc2n1C` [compound 27], the death rate in assay [2] and in assay [3] was 100% throughout.
As for `CCS(=O)(=O)c1cc(C(OC)(OC)OC)cnc1-c1nc2cc(C(F)(F)C(F)(F)F)cnc2n1C` [compound 528], the death rate in assay [1] and in assay [3] was 100% each time.
Molecule `CCS(=O)(=O)c1cc(C(F)(F)C(F)(F)F)cnc1-c1nc2cc(C(F)(F)F)cnc2n1C` [compound 72] registered a death rate in assay [3] of 100%.
`CCS(=O)(=O)c1cccnc1-c1nc2cc(SC(F)(F)F)ccc2n1C` [compound 63] yielded a death rate in assay [2] of 100%.
Turning to `CCS(=O)(=O)c1cccnc1-c1nc2cc(C(F)(F)F)cnc2n1C` [compound 3], in assay [3], the death rate is listed as 100%.
`CCSc1cc(C(F)(F)C(F)(F)F)cnc1-c1nc2cc(C(F)(F)F)cnc2n1C` [compound 71] returned a death rate in assay [1] of 100%.
As for `CCS(=O)(=O)c1cc(C(F)(F)F)cnc1-c1nc2cc(C(F)(F)F)c(N(C)C)nc2n1C` [compound 99], the death rate in assay [2] was 100%.
For the molecule `CCS(=O)(=O)c1cc(C(F)(F)C(F)(F)F)cnc1-c1nc2cc(C(F)(F)C(F)(F)F)cnc2n1C` [compound 74], the death rate in assay [1] and in assay [3] was 100% each time.
Turning to `CCS(=O)(=O)c1cc(C(F)(F)F)cnc1-c1nc2cc(C(F)(F)C(F)(F)F)c[n+]([O-])c2n1C` [compound 523], the death rate in assay [1] and in assay [3] was 100% in each case.
For the molecule `CCSc1cccnc1-c1nc2cc(C(F)(F)F)cc(Sc3ccccc3)c2n1C` [compound 516], the death rate in assay [2] was determined as 100%.
For the molecule `CCS(=O)(=O)c1cccnc1-c1nc2cc([S+]([O-])C(F)(F)F)cnc2n1C` (stereo not shown) [compound 20], the death rate in assay [1] and in assay [3] was 100% throughout.
`CCS(=O)(=O)c1cccnc1-c1nc2cc(C(F)(F)F)cc(S(=O)(=O)CC(F)(F)F)c2n1C` [compound 518] gave a death rate in assay [3] of 100%.
Molecule `CCS(=O)(=O)c1cc(C(F)(F)F)cnc1-c1nc2cc(S(=O)(=O)C(F)(F)F)cnc2n1C` [compound 25] gave a death rate in assay [2] of 100%.
Take `CCS(=O)(=O)c1cc(C(F)(F)F)cnc1-c1nc2cc(C(F)(F)C(F)(F)F)cnc2n1C` [compound 19]: the death rate in assay [1], in assay [2] and in assay [3] was 100% each time.
As for `CCS(=O)(=O)c1cc(C(F)(F)F)cnc1-c1nc2cc(SC(F)(F)F)cnc2n1C` [compound 44], the death rate in assay [1] and in assay [3] was 100% in each case.
`CCS(=O)(=O)c1cc(C(F)(F)F)cnc1-c1nc2cc(C(F)(F)F)c(Cl)nc2n1C` [compound 89]: the death rate in assay [1] is listed as 100%.
With `CCS(=O)(=O)c1cc(C(F)(F)F)cnc1-c1nc2cc([S+]([O-])C(F)(F)F)cnc2n1C` (stereo not shown) [compound 60], the death rate in assay [1] and in assay [3] was 100% throughout.
For the molecule `CCS(=O)(=O)c1cccnc1-c1nc2cc(C(F)(F)C(F)(F)F)cnc2n1C` [compound 8], the death rate in assay [2] and in assay [3] was 100% throughout.
As to `CCSc1cc(C(F)(F)F)cnc1-c1nc2cc(C(F)(F)F)cnc2n1C` [compound 4], in assay [1], the death rate worked out at 100%.
`CCSc1cccnc1-c1nc2cc(OC(F)(F)F)ccc2n1C` [compound 49] yielded a death rate in assay [2] of 100%.
With `CCSc1cccnc1-c1nc2cc(SC(F)(F)F)ccc2n1C` [compound 61], the death rate in assay [2] and in assay [3] was 100% in each case.
`CCSc1cc(C(F)(F)F)cnc1-c1nc2cc(SC(F)(F)F)cnc2n1C` [compound 28] registered a death rate in assay [1] of 100%.
Regarding `CCSc1cccnc1-c1nc2cc(C(F)(F)F)ccc2n1C` [compound 30], the death rate in assay [2] amounted to 100%.
`CCS(=O)(=O)c1cccnc1-c1nc2cc(S(=O)(=O)C(F)(F)F)ccc2n1C` [compound 64] had a death rate in assay [3] of 100%.
Turning to `CCS(=O)(=O)c1cccnc1-c1nc2cc(SC(F)(F)F)cnc2n1C` [compound 15], the death rate in assay [2] and in assay [3] was 100% each time.
